Experimental data from US11773078B2, “Furin inhibitors” (Glaxosmithkline Intellectual Property Development Limited, priority 2018, dated 2023).
Structures can show the parent of a compound that is named as a salt.

Tests used:
[1] = target: T1, Furin (108-574-Tev-Flag-His) enzyme (Homo sapiens, UniProt P09958); assay: Furin enzyme assay; format: biochemical
T1 construct: Furin (108-574-Tev-Flag-His) enzyme was expressed and purified from CHO cells; TEV cleavage site (C); FLAG (C); His (C); made in house; host or cells: CHO cells
Summary of the method: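 Compounds ran as 11-point threefold dilutions (0.00017–10 μM final) against 40 pM furin, purified from CHO cells, for 2 h at room temperature. Buffer: 100 mM HEPES pH7.5 with 1 mM CaCl2 and 0.005% Triton X-100. Envision readout. Four-parameter curve gives pXC50.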

[2] = target: T2, furin (endogenous protease) in U20S cells (Homo sapiens, UniProt P09958); assay: Furin cell-based assay (image-based, Golgi-targeted GFP with BMP10 furin/PCSK cleavage site); details: 24-hour incubation, read-out: furin golgi cell pXC50 (converted);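 further: Read-out is mean GFP fluorescence of Golgi puncta per cell by high-content imaging, retained when furin inhibited, over an eleven-point 0.00017–10 µM series, four-parameter fit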
T2 construct: the endogenous protease cleaves GFP; endogenous in cells; host or cells: U2OS cells transduced with a BacMam reporter

[3] = system: hydroxyproline (a specific marker for collagen) in mouse lung; assay: Bleomycin induced lung fibrosis model: hydroxyproline assay; format: in vivo; details: relative to levels induced by Bleomycin in vehicle treated animals, *p < 0.05
Protocol: (§1) Preclinical pulmonary fibrosis can be induced by single instillation of Bleomycin to the mouse lung. A 15-day Bleomycin protocol was developed to evaluate compounds of the invention in vivo for their ability to inhibit TGFβ secretion and collagen deposition in the mouse lung. On the day before Bleomycin instillation, compounds were administrated to mice based on the appropriate route and frequency. On the study initiation day, under Ketamine (80 mg/kg) and Xylazine (10 mg/kg) anesthesia, all the animals were cannulated oro-tracheally and 50 μL of normal saline (Sham control) or 0.03 U Bleomycin in 50 μL saline (all groups except sham control group) was delivered into the trachea. Compounds were dosed daily until the end of study on Day 15. On termination day, animals were euthanized using CO2 inhalation. The right lung was collected, washed in normal saline, weighed, flash frozen in liquid nitrogen and stored at −80° C. for hydroxyproline (a specific marker for collagen) and TGFβ assays.
(§2) Flash frozen whole right lung tissues were homogenized in 500 μL of RIPA buffer containing PMSF and protease inhibitor cocktail using zirconium oxide bead based homogenizer (Bullet blender Gold, NextAdvance, Germany). Briefly, tissues were spun in the homogenizer at 4° C. for three cycles of 10 minutes each at 1000 g. A complete uniform tissue mixture was obtained using this procedure. The homogenate volume was made up to 1.5 mL by adding 1 mL of RIPA buffer containing PMSF and protease inhibitor cocktail to 500 μL of homogenate. The homogenate was stored as aliquots of 100-500 μL each at −80° C.
Acid hydrolysis: 500 μL of the homogenized lung parenchyma was transferred to glass vials, and an equal volume of 12N HCl was added (final concentration of HCl: 6N). The vials were purged with nitrogen gas, sealed and incubated overnight (16 h) under anoxic conditions at 110° C.
Post incubation procedures: 35 μL of the sample from each tube or standard (prepared by serial dilution of hydroxyproline stock solution) was added onto a 96 well plate and the assay was performed as per the kit protocol (Quickzyme Biosciences: Cat #: QZBHYPR05). After the final color development, absorbance was measured by colorimetric analysis at 570 nm (using Thermoscan spectrum (Plate Reader) and results were recorded. Standard curve (linear graph) was generated by using hydroxyproline standards provided in the Quickzyme kit.

TGFβ in mouse lung = assay: Bleomycin induced lung fibrosis model: TGFβ assay; format: in vivo; details: relative to levels induced by Bleomycin in vehicle treated animals, *p < 0.05
Protocol: as §1, §2
Lung tissue homogenates (500 μL) were spun at 13,000 rpm for 20 minutes at 4° C. and supernatants were collected for TGFβ estimation. The assay was performed according to the manufacturer's manual (R&D systems: Cat #SMB100B). Briefly, the lung homogenates were activated by acid activation followed by neutralization to convert latent TGFβ to active TGFβ and the total TGFβ levels in supernatants were measured. Total protein levels in the lung supernatant were also determined.

[4] = system: epithelial sodium channel (ENaC); assay: TEER assay, chronic or acute treatment, Non-CF Polarized Human Lobar Bronchial Epithelial Cells; format: cell-based; design: RTE Before Amil / RTE After Amil: unit not given here; details: for Delta RTE / RTE After Amil / RTE Before Amil: chronic treatment (overnight)
Protocol: Primary cultures of CF delF508 or non-CF HBE cells are seeded onto permeable filter supports and grown for 12-14 days for a significant RTE to be measured for TEER assays.
When the ENaC is active under basal conditions (at least in part due to protease cleavage inside the cell or at the apical membrane), there is a finite RTE that is affected by the Na+ current flowing through ENaC heterotrimers (αβγ or δβγ).

[5] = acute treatment, 3 μM thru 50 μM
[6] = 10 mg/kg, Intra-peritoneal, Twice daily
[7] = 10 mg/kg, Intra-peritoneal, Once daily

T1 sequence (P09958 108-574): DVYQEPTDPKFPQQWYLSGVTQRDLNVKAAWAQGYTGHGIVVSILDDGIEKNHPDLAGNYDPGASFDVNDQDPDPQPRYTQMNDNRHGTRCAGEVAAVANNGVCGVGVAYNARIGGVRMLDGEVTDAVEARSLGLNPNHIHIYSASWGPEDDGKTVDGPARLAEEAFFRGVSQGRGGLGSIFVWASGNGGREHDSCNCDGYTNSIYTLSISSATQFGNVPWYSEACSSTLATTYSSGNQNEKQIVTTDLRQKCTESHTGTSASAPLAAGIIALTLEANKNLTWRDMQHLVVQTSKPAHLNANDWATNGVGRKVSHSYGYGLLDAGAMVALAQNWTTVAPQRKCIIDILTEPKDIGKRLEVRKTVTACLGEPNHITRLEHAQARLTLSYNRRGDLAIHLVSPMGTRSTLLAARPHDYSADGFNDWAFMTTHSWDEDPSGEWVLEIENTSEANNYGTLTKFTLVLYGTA
T2 sequence (P09958 108-794): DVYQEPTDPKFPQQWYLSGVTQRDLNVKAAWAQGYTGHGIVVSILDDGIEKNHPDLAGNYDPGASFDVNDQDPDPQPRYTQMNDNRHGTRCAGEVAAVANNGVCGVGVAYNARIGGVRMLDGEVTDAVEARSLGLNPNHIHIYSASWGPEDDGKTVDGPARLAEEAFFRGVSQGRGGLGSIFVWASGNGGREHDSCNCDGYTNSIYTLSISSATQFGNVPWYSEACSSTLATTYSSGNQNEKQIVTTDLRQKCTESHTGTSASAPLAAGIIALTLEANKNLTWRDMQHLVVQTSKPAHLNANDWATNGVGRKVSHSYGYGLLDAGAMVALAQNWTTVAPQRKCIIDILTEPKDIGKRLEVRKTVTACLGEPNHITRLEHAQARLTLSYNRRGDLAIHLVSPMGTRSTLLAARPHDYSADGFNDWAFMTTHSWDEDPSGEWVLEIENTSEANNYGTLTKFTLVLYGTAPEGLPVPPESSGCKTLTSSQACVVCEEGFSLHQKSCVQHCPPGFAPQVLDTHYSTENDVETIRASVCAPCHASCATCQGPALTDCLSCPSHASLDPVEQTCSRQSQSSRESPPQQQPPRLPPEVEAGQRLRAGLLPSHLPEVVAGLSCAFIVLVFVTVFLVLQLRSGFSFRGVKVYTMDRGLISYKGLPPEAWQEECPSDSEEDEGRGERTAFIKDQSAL

Row | furin enzyme pIC50 [1] | EC50 [2] [µM] | Compound | also measured
1 | 9.1 | 0.01 | CC(CC1CCN(Cc2cc(Oc3cnc(N4CCN(C)CC4)nc3)nc(-c3cc(Cl)cc(Cl)c3)c2)CC1)C(=O)O (stereo in doubt) [Example 137, (R)-3-(1-((2-(3,5-dichlorophenyl)-6-((2-(4-methylpiperazin-1-yl)pyrimidin-5-yl)oxy)pyridin-4-yl)methyl)piperidin-4-yl)-2-methylpropanoic acid] | % inhibition of hydroxyproline in lung ([3]; 10 mg/kg, Oral, Once daily): 54* %; % inhibition of total TGFβ in lung (TGFβ in mouse lung; 10 mg/kg, Oral, Once daily): 81* %
2 | – | – | CN(C)C(=O)COC(=O)Cc1ccc(OC(=O)c2ccc(NC(=N)N)cc2)cc1 [Camostat] | Delta RTE after Amil [4, 5]: +15 ± 2; Delta RTE after Volume Additions [4, 5]: +82 ± 4; inhibition of amiloride-sensitive RTE delta (remaining ENaC activity) ([4]; acute treatment, tested at much higher concentrations than Example 11): more strongly; effect on the amiloride-sensitive RTE delta ([4]; chronic overnight treatment, 50 μM, P<0.05): equivalent inhibitory effect; Delta RTE ([4]; 3 μM): +172 ± 20; RTE After Amil ([4]; 3 μM): 615 ± 26; RTE Before Amil ([4]; 3 μM): 443 ± 6; Delta RTE ([4]; 10 μM): +119 ± 1; RTE After Amil ([4]; 10 μM): 506 ± 10; RTE Before Amil ([4]; 10 μM): 387 ± 11; Delta RTE ([4]; 30 μM): +163 ± 8; RTE After Amil ([4]; 30 μM): 635 ± 13; RTE Before Amil ([4]; 30 μM): 472 ± 6; Delta RTE ([4]; 50 μM): +98 ± 2; RTE After Amil ([4]; 50 μM): 446 ± 3; RTE Before Amil ([4]; 50 μM): 348 ± 4
3 | 8.7 | 0.126 | CC(=O)NCC1CCN(Cc2cc(Oc3ccc(N4CCN(CC(=O)O)CC4)nc3)nc(-c3cc(Cl)cc(Cl)c3)c2)CC1 [Example 10, 2-(4-(5-((4-((4-(Acetamidomethyl)piperidin-1-yl)methyl)-6-(3,5-dichlorophenyl)pyridin-2-yl)oxy)pyridin-2-yl)piperazin-1-yl)acetic acid, 4 hydrochloride] | % inhibition of hydroxyproline in lung [3, 6]: 16%; % inhibition of total TGFβ in lung (TGFβ in mouse lung; [6]): 43* %
4 | 8.3 | 0.0251 | CC(=O)NCC1CCN(Cc2cc(Oc3ccc(N4CCN(CCS(C)(=O)=O)CC4)nc3)nc(-c3cc(Cl)cc(Cl)c3)c2)CC1 [Example 12, N-((1-((2-(3,5-Dichlorophenyl)-6-((6-(4-(2-(methylsulfonyl)ethyl)piperazin-1-yl)pyridin-3-yl)oxy)pyridin-4-yl)methyl)piperidin-4-yl)methyl)acetamide, 4 hydrochloride] | % inhibition of hydroxyproline in lung ([3]; 30 mg/kg, Oral, Once daily): 45* %; % inhibition of total TGFβ in lung (TGFβ in mouse lung; 30 mg/kg, Oral, Once daily): 41* %
5 | 9.1 | 0.0251 | CNC(=O)NCC1CCN(Cc2cc(Oc3ccc(N4CCN(CCC(=O)O)CC4)nc3)nc(-c3cc(Cl)cc(Cl)c3)c2)CC1 [Example 41, 3-(4-(5-((6-(3,5-Dichlorophenyl)-4-((4-((3-methylureido)methyl)piperidin-1-yl)methyl)pyridin-2-yl)oxy)pyridin-2-yl)piperazin-1-yl)propanoic acid] | % inhibition of hydroxyproline in lung [3, 7]: 39* %; % inhibition of total TGFβ in lung (TGFβ in mouse lung; [7]): 67* %
6 | – | – | CN1CCN(c2ncc(Oc3cc(CN4CCC(CC(=O)O)CC4)cc(-c4cc(Cl)cc(Cl)c4)n3)cn2)CC1 [Example 207, 2-(1-((2-(3,5-Dichlorophenyl)-6-((2-(4-methylpiperazin-1-yl)pyrimidin-5-yl)oxy)pyridin-4-yl)methyl)piperidin-4-yl)acetic acid] | % inhibition of hydroxyproline in lung ([3]; 10 mg/kg, Oral, Once daily): 46* %; % inhibition of total TGFβ in lung (TGFβ in mouse lung; 10 mg/kg, Oral, Once daily): 66* %
7 | 8.7 | 0.00631 | CC(=O)NCC1CCN(Cc2cc(Oc3cnc(N4CCN(CCC(N)=O)CC4)cn3)nc(-c3cc(Cl)cc(Cl)c3)c2)CC1 [Example 391, 3-(4-(5-((4-((4-(acetamidomethyl)piperidin-1-yl)methyl)-6-(3,5-dichlorophenyl)pyridin-2-yl)oxy)pyrazin-2-yl)piperazin-1-yl)propanamide] | –
8 | 9 | 0.0158 | CCC(=O)NCC1CCN(Cc2cc(Oc3cnc(N4CCN(CCC(C)C(=O)O)CC4)cn3)nc(-c3cc(Cl)cc(Cl)c3)c2)CC1 (stereo not shown) [Example 392, 4-(4-(5-((6-(3,5-dichlorophenyl)-4-((4-(propionamidomethyl)piperidin-1-yl)methyl)pyridin-2-yl)oxy)pyrazin-2-yl)piperazin-1-yl)-2-methylbutanoic acid] | –
9 | 9.2 | 0.00251 | CC(=O)NCC1CCN(Cc2cc(Oc3cnc(N4CCN(C(C)CO)CC4)cn3)nc(-c3cc(Cl)cc(Cl)c3)c2)CC1 (stereo not shown) [Example 393, N-((1-((2-(3,5-dichlorophenyl)-6-((5-(4-(1-hydroxypropan-2-yl)piperazin-1-yl)pyrazin-2-yl)oxy)pyridin-4-yl)methyl)piperidin-4-yl)methyl)acetamide] | –
10 | 9 | 0.00631 | CNC(=O)NCC1CCN(Cc2cc(Oc3cnc(N4CCN(C)CC4)cn3)nc(-c3cc(Cl)cc(Cl)c3)c2)CC1 [Example 394, 1-((1-((2-(3,5-dichlorophenyl)-6-((5-(4-methylpiperazin-1-yl)pyrazin-2-yl)oxy)pyridin-4-yl)methyl)piperidin-4-yl)methyl)-3-methylurea] | –
11 | 9.2 | 0.0316 | COC(=O)NCC1CCN(Cc2cc(Oc3cnc(N4CCN(C)CC4)cn3)nc(-c3cc(Cl)cc(Cl)c3)c2)CC1 [Example 395, methyl ((1-((2-(3,5-dichlorophenyl)-6-((5-(4-methylpiperazin-1-yl)pyrazin-2-yl)oxy)pyridin-4-yl)methyl)piperidin-4-yl)methyl)carbamate] | –
12 | 10.3 | 0.01 | CC(=O)NCC1CCN(Cc2cc(Oc3cnc(N4CCN(CCC(C)C(=O)O)CC4)cn3)nc(-c3cc(Cl)cc(Cl)c3)c2)CC1 (stereo not shown) [Example 396, 4-(4-(5-((4-((4-(acetamidomethyl)piperidin-1-yl)methyl)-6-(3,5-dichlorophenyl)pyridin-2-yl)oxy)pyrazin-2-yl)piperazin-1-yl)-2-methylbutanoic acid] | –
13 | 9 | 0.0251 | CN1CCCN(c2ncc(Oc3cc(CN4CC[C@@H]5[C@H](CC4)[C@H]5C(=O)O)cc(-c4cc(Cl)cc(Cl)c4)n3)cn2)CC1 [Example 397, (1R,7S,8r)-4-((2-(3,5-Dichlorophenyl)-6-((2-(4-methyl-1,4-diazepan-1-yl)pyrimidin-5-yl)oxy)pyridin-4-yl)methyl)-4-azabicyclo[5.1.0]octane-8-carboxylic acid, 4 hydrochloride] | –
14 | 8.8 | 0.0398 | O=C(O)CC1CCN(Cc2cc(Oc3cnc(N4CCNCC(F)C4)nc3)nc(-c3cc(Cl)cc(Cl)c3)c2)CC1 (stereo not shown) [Example 399, 2-(1-((2-(3,5-dichlorophenyl)-6-((2-(6-fluoro-1,4-diazepan-1-yl)pyrimidin-5-yl)oxy)pyridin-4-yl)methyl)piperidin-4-yl)acetic acid] | –

Row | Compound | furin enzyme pIC50 [1] | EC50 [2] [µM] | also measured
15 | CN1C2CCC1CN(c1ncc(Oc3cc(CN4CCC(CC(=O)O)CC4)cc(-c4cc(Cl)cc(Cl)c4)n3)cn1)C2 [Example 398, 2-(1-((2-(3,5-dichlorophenyl)-6-((2-(8-methyl-3,8-diazabicyclo[3.2.1]octan-3-yl)pyrimidin-5-yl)oxy)pyridin-4-yl)methyl)piperidin-4-yl)acetic acid] | 8.9 | 0.00631 | –
